Legend:
Format in all cases: in vivo
[1] = test system: male ostriches which violently behaved, cried and did not take feed; test: Alleviation of the violence and stimulation of the appetite in male ostrich; details: for Alleviation of the violence and stimulation of the appetite: results compared with 17β-decanoate-4-estren-3-one / Alleviation of the violence and stimulation of the appetite according to administered amount: results compared with 17β-decanoate-4-estren-3-one: male ostrich; for Alleviation of the violence and stimulation of the appetite: results compared with 17β-decanoate-4-estren-3-one: same procedures as Experimental Example 1 (100 kg, intramuscular, 100 mg), Example 1 result: alleviated violence and stimulated appetite; for Alleviation of the violence and stimulation of the appetite according to administered amount: results compared with 17β-decanoate-4-estren-3-one: same procedures as Experimental Example 2 (100 kg, intramuscular, 10 to 1000 mg), Example 2 result: alleviated violence and stimulated appetite at every amount
Text: (§1) After administration, their behaviors and appetites were observed.

[2] = test system: male horses which violently behaved, cried and did not take feed; test: Alleviation of the violence and stimulation of the appetite in male horse; details: male horses 200 kg, 20, 40, 100, 200, 300, 400, 1000 and 2000 mg (0.1 to 10 mg per kg), Experimental Example 25, summary of Table 8
Text: as §1

[3] = test system: male dogs which violently behaved, cried and did not take feed; test: Alleviation of the violence and stimulation of the appetite in male dog; details: male dogs 40 kg, 4, 8, 20, 40, 60, 80, 200 and 400 mg (0.1 to 10 mg per kg), Experimental Example 21, summary of Table 4
Text: as §1

[4] = test system: male cats which violently behaved, cried and did not take feed; test: Alleviation of the violence and stimulation of the appetite in male cat; details: male cats 1 kg, 0.1, 0.2, 0.5, 1.0, 1.5, 2.0, 5.0 and 10 mg (0.1 to 10 mg per kg), Experimental Example 23, summary of Table 6
Text: as §1

[5] = test system: male goats which violently behaved, cried and did not take feed; test: Alleviation of the violence and stimulation of the appetite in male goat; details: male goats 40 kg, 4, 8, 20, 40, 60, 80, 200 and 400 mg (0.1 to 10 mg per kg), Experimental Example 27, summary of Table 10
Text: as §1

[6] = male ostriches 100 kg, 10, 20, 50, 100, 150, 200, 500 and 1000 mg (0.1 to 10 mg per kg), Experimental Example 2, summary of Table 2

Row | Compound | Alleviation of the violence and stimulation of the appetite: results compared with 17β-decanoate-4-estren-3-one [1] | Alleviation of the violence and stimulation of the appetite according to administered amount: results compared with 17β-decanoate-4-estren-3-one [1] | also measured
1 | CCC(=O)O[C@H]1CC[C@H]2[C@@H]3CCC4=CC(=O)CC[C@@H]4[C@H]3CC[C@]12C [17β-propionate-4-estren-3-one] | the same with the result of the experiment using 17β-decanoate-4-estren-3-one in Experimental Example 1 | the same with the result of the experiment using 17β-decanoate-4-estren-3-one in Experimental Example 2 | –
2 | CCCCCCCCCCCC(=O)O[C@H]1CC[C@H]2[C@@H]3CCC4=CC(=O)CC[C@@H]4[C@H]3CC[C@]12C [17β-dodecanoate-4-estren-3-one] | the same with the result of the experiment using 17β-decanoate-4-estren-3-one in Experimental Example 1 | the same with the result of the experiment using 17β-decanoate-4-estren-3-one in Experimental Example 2 | –
3 | C[C@]12CC[C@H]3[C@@H](CCC4=CC(=O)CC[C@@H]43)[C@@H]1CC[C@@H]2OC(=O)C1CCCCC1 [17β-cyclohexanecarboxylate-4-estren-3-one] | the same with the result of the experiment using 17β-decanoate-4-estren-3-one in Experimental Example 1 | the same with the result of the experiment using 17β-decanoate-4-estren-3-one in Experimental Example 2 | –
4 | CCCCCCOc1ccc(CCC(=O)O[C@H]2CC[C@H]3[C@@H]4CCC5=CC(=O)CC[C@@H]5[C@H]4CC[C@]23C)cc1 [17β-p-hexyloxyphenylpropionate-4-estren-3-one] | the same with the result of the experiment using 17β-decanoate-4-estren-3-one in Experimental Example 1 | the same with the result of the experiment using 17β-decanoate-4-estren-3-one in Experimental Example 2 | –
5 | C[C@]12CC[C@H]3[C@@H](CCC4=CC(=O)CC[C@@H]43)[C@@H]1CC[C@@H]2OC(=O)c1ccccc1 [17β-benzoate-4-estren-3-one] | the same with the result of the experiment using 17β-decanoate-4-estren-3-one in Experimental Example 1 | the same with the result of the experiment using 17β-decanoate-4-estren-3-one in Experimental Example 2 | –
6 | C[C@]12CC[C@H]3[C@@H](CCC4=CC(=O)CC[C@@H]43)[C@@H]1CC[C@@H]2O [17β-hydroxy-4-estren-3-one] | the same with the result of the experiment using 17β-decanoate-4-estren-3-one in Experimental Example 1 | the same with the result of the experiment using 17β-decanoate-4-estren-3-one in Experimental Example 2 | appetite after intramuscular injection [2]: appetite stimulated; feed intake after administration [2]: increased feed intake; violence of estrus after intramuscular injection [2]: violence of estrus alleviated; appetite after intramuscular injection [3]: appetite stimulated; feed intake after administration [3]: increased feed intake; violence of estrus after intramuscular injection [3]: violence of estrus alleviated; appetite after intramuscular injection [1, 6]: appetite stimulated; feed intake after administration [1, 6]: increased feed intake; violence of estrus after intramuscular injection [1, 6]: violence of estrus alleviated; appetite after intramuscular injection [4]: appetite stimulated; feed intake after administration [4]: increased feed intake; violence of estrus after intramuscular injection [4]: violence of estrus alleviated; appetite after intramuscular injection [5]: appetite stimulated; feed intake after administration [5]: increased feed intake; violence of estrus after intramuscular injection [5]: violence of estrus alleviated
7 | C[C@]12CC[C@H]3[C@@H](CCC4=CC(=O)CC[C@@H]43)[C@@H]1CC[C@@H]2OC(=O)CCC1CCCCC1 [17β-cyclohexylpropinoate-4-estren-3-one] | the same with the result of the experiment using 17β-decanoate-4-estren-3-one in Experimental Example 1 | – | –
8 | C[C@]12CC[C@H]3[C@@H](CCC4=CC(=O)CC[C@@H]43)[C@@H]1CC[C@@H]2OC(=O)CCc1ccccc1 [17β-phenpropionate-4-estren-3-one] | the same with the result of the experiment using 17β-decanoate-4-estren-3-one in Experimental Example 1 | the same with the result of the experiment using 17β-decanoate-4-estren-3-one in Experimental Example 2 | –

Source: patent US20040058898A1, “Pharmaceutical composition for alleviating the violence of a mammal comprising nortestosterone derivatives” (priority 2002, published 2004)
